biological target: Bafilomycin-Sensitive ATPase in Chicken Osteoclasts; assay: Inhibition of bafilomycin-sensitive ATPase activity in purified membrane vesicles (Pi release, malachite green); type: biochemical; conditions: chicken osteoclast membranes
Description: Preparation of crude bone microsomes from calcium-starved egg-laying hens.
Vesicles were prepared from medullar bone obtained from tibiae and femurs of egg-laying hens which were calcium-starved for at least 15 days. Briefly, bone fragments were scraped with a 24 scalpel blade, suspended in 40 ml of isolation medium (0.2M sucrose, 50 mM KCl, 10 mM Hepes, 1 mM EGTA, 2 mM dithiotheitrol, pH 7.4) and filtered through a 100 μm pore size nylon mesh. The whole procedure was performed at 4° C. After homogenisation in a potter (20 strokes) in 40 ml of isolation medium an initial centrifugation (6,500×gmax ×20 min) was performed to remove mitochondria and lysosomes. The supernatant was centrifuged at 100,000×gmax for 1 hr and the pellet was collected in 1 ml of isolation medium, divided into 200 μl aliquots, immediately frozen in liquid nitrogen and stored at […]. The protein content was determined using a Biorad colourimetric kit according to Bradford [M. Bradford, Anal. Biochem., 72, 248 (1976)]. For the proton transport assay, 5-10 μl of membranes were used.
Purification of osteoclast membranes. 1 ml of crude microsomal vesicles prepared above were applied (about 0.2 ml per tube) on the top of a sucrose step-gradient consisting of 3.5 ml of 15%, 30% and 45% (w/w) sucrose in isolation medium and centrifuged at 280,000 gmax for 2 hours (SW 41 Ti rotor). After centrifugation the 30-45% sucrose interfaces were collected, diluted approx. 20-fold in isolation medium and pelletted at 100,000 gmax for 1 hour (SW 28 rotor). The pellet was then resuspended in 1 ml of isolation medium, aliquoted and frozen in liquid N2 and stored at -80° C. until used.
Inhibition of bafilomycin-sensitive ATPase activity was assessed in purified membrane vesicles by measuring the release of inorganic phosphate (Pi) during 30 min of incubation at 37° C. in a 96-well plate either in the presence or in the absence of bafilomycin A1. The reaction medium contained 1 mM ATP, 10 mM HEPES-Tris pH 8, 50 MM KCl, 5 uM valinomycin, 5 uM nigericin, 1 mM CDTA-Tris, 100 uM ammonium molybdate, 0.2M sucrose and membranes (20 ug protein/ml). The reaction was initiated by MgSO4 (8-arm pipette) and stopped, after 30 min, by addition of 4 volumes of the malachite green reagent (96-arm pipette) prepared according to Chan [Anal. Biochem. 157, 375 (1986)]. Absorbance at 650 nm was measured after 2 min using a microplate reader. Results are expressed as μmol (Pi)×mg protein^-1 ×hour^-1 and, for each experiment, represent the mean±sem of triplicates.

Row | IC50 [µM] | SMILES
1 | 10.6 | CO/C(=C\C=C\c1cc2ccccc2s1)C(=O)NC1CC(C)(C)N(C)C(C)(C)C1 [Example 12, (2Z,4E)-5-(Benzothiophen-2-yl)-2-methoxy-N-[(1,2,2,6,6-pentamethyl)-piperidin-4-yl]-2,4-pentadienamide]
2 | 11 | CO/C(=C\C=C\c1cc2ccccc2o1)C(=O)NC1CC(C)(C)N(C)C(C)(C)C1 [Example 5, (2Z,4E)-5-(Benzofuran-2-yl)-2-methoxy-N[(1,2,2,6,6-pentamethyl)-piperidin-4-yl]-2,4-pentadienamide]
3 | 8.6 | CO/C(=C\C=C\c1cc2ccccc2o1)C(=O)NC1CC(C)(C)NC(C)(C)C1 [Example 3, (2Z,4E)-5-(Benzofuran-2-yl)-2-methoxy-N-((2,2,6,6-tetramethyl)-piperidin-4-yl)-2,4-pentadienamide]
4 | 0.5 | CO/C(=C\C=C\c1cc2cc(Cl)ccc2o1)C(=O)NC1CC(C)(C)N(C)C(C)(C)C1 [Example 8]
5 | 10 | CCN(CC)CCCNC(=O)/C(=C/C=C/c1cc2cc(Cl)ccc2o1)OC [Example 9, (2Z,4E)-5-(5-Chlorobenzofuran-2-yl)-N-(3-diethylaminopropyl)-2-methoxy-2,4-pentadienamide]

tested on: osteoclast cultures; assay: not given; conditions: cited from earlier work

Row | SMILES | inhibition of bone resorption
6 | CO/C1=C\C(C)=C\[C@@H](C)[C@@H](O)[C@@H](C)C/C(C)=C/C=C/[C@H](OC)[C@@H]([C@@H](C)[C@@H](O)[C@H](C)[C@@]2(O)C[C@@H](O)[C@H](C)[C@@H](C(C)C)O2)OC1=O [bafilomycin A1] | able to inhibit bone resorption

tested on: osteoclast proton pump; assay: not given; conditions: avian osteoclast membrane vesicles, ATP-driven acidification; cited from earlier work

Row | SMILES | inhibition of proton transport
7 | C[C@@H]1O[C@@H](O[C@H]2C[C@@H](O)[C@]3(CO)[C@H]4[C@H](O)C[C@]5(C)[C@@H](C6=CC(=O)OC6)CC[C@]5(O)[C@@H]4CC[C@]3(O)C2)[C@H](O)[C@H](O)[C@H]1O [ouabain] | not inhibited
8 | CO/C1=C\C(C)=C\[C@@H](C)[C@@H](O)[C@@H](C)C/C(C)=C/C=C/[C@H](OC)[C@@H]([C@@H](C)[C@@H](O)[C@H](C)[C@@]2(O)C[C@@H](O)[C@H](C)[C@@H](C(C)C)O2)OC1=O [bafilomycin A1] | inhibited
9 | [Na+].[Na+].[Na+].[O]=[V]([O-])([O-])[O-] [sodium orthovanadate] | not inhibited
10 | COc1ccc2[nH]c([S+]([O-])Cc3ncc(C)c(OC)c3C)nc2c1 (stereo not drawn) [omeprazole] | not inhibited
11 | Cc1nc2c(OCc3ccccc3)cccn2c1CC#N [SCH 28080] | not inhibited
12 | CCN1C(=O)C=CC1=O [N-ethylmaleimide] | inhibited
